Like-named read-outs stand apart in the source and are kept apart here.
Tests used:
[1] = test system: oxotremorine-induced body tremor; experiment: Oxotremorine antagonist assay (body tremor); format: in vivo, mice; conditions: Mus musculus, ip; read-out: Oxot. Antagonist Tremor (ED50)
Procedure: Oxotremorine antagonist assays were performed on groups of six mice weighing 18-22 g. Each was dosed intraperitoneally with the test compound prepared in 0.25% methylcellulose and were placed in individual cages. Twenty minutes later the mice were injected subcutaneously with 0.5 mg/kg of oxotremorine dissolved in saline. Ten minutes later the mice were scored for body tremor. Doses of the compound under study began at 100 mg/kg and were decreased at a 0.5 log interval until no responders were obtained.

CNS cholinergic receptor [2] = experiment: CNS cholinergic receptor binding, oxotremorine M ligand; conditions: tritiated oxotremorine M; read-out: CNS Cholinergic Receptor Binding Assays K1 Oxotremorine
CNS cholinergic receptor [3] = conditions: tritiated quinuclidine benzylate (QNB); read-out: CNS Cholinergic Receptor Binding Assays K1 QNB
HCl-induced writhing = experiment: HCl writhing protection (analgesic activity); format: in vivo, CF1 mice; conditions: Mus musculus, sc, read-out: CNS Id (ED50 mg/kg) HCl Writh. Protect
Procedure: For determination of analgesic activity, the test compound was injected subcutaneously into a group of four CF1 mice. Thirty minutes later the mice were injected i.p. with 0.15% HCl, 10 ml./kg. Mice were then placed in plastic boxes and observed for fifteen minutes to record the number of animals failing to writhe.

[4] = test system: amnesia produced by scopolamine; experiment: Antagonism of scopolamine-induced amnesia, passive avoidance; format: in vivo; conditions: i.p. test compound, 1 mg/kg s.c. scopolamine hydrobromide, mouse step through passive avoidance
From the text: For antagonism of amnesia produced by scopolamine a one trial, step through passive avoidance paradigm was used. In this procedure a mouse was placed on a square platform adjoining a darkened chamber. The mouse could enter the chamber through a hole above the platform. Following placement on the platform, the mouse was enclosed by a clear plexiglas cover which mildly restricted movement, limiting the animal to turning around and partial rearing. A sliding door was opened after this, exposing the entrance to the chamber. A timer was started at the same time the door was opened, in order to record latency to enter the chamber. Upon complete entry into the darkened box, the door was closed behind the mouse and a 1 mA, 2 sec, direct current shock applied to the feet of the mouse through the grid floor. The mouse was immediately removed from the chamber and returned to a 24 hr group holding cage.
Drug testing involved intraperitoneal injection of the test compound followed 15 min later by subcutaneous injection of 1 mg/kg scopolamine hydrobromide. […] The latency for each mouse to enter the chamber was recorded, with a cut-off at 180 sec.
Median group latencies to enter the chamber during both training and testing were recorded and a Wilcoxon rank sum test applied to data comparing the parallel "scopolamine only" group with all drug combination groups on testing. […]

cholinergic mechanism = conditions: extremely low doses; cited from earlier work
[5] = versus prior oxotremorine compounds; U.S. Pat. No. 3,925,411; cited from earlier work
[6] = ED50, s.c. in CF1 mice, 30 min before i.p. 0.15% HCl

SMILES	ED50 [1] [mg/kg]	Ki (CNS cholinergic receptor [2]) [nM]	Ki (CNS cholinergic receptor [3]) [nM]	ED50 (HCl-induced writhing; [6]) [mg/kg]	antagonism of amnesia produced by scopolamine [4]	tremors and spasticity in laboratory animals (cholinergic mechanism)	ED50 (HCl-induced writhing) [mg/kg]	half life [5]
COC(=O)N1CCC[C@H]1C#CCN1CCCC1 [Compound 51K, (S)-Methyl 2-[3-(1-pyrrolidinyl)-1-propynyl]-1-pyrrolidinecarboxylate]	97	130	220	> 50	–	–	–	–
CN(C)C(=O)N1CCC[C@H]1C#CCN1CCCC1 [Compound 51F, (S)-N,N-Dimethyl 2-[3-(1-pyrrolidinyl)-1-propynyl]-1-pyrrolidinecarboxamide]	> 100	460	2000	> 50	–	–	–	–
Cn1ccn(CC#CCN2CCCC2)c1=O [Compound 36, 1,3-Dihydro-1-methyl-3-[4-(1-pyrrolidinyl)-2-butynyl]-2H-imidazol-2-one]	> 10	7	510	1.3	the most active	–	–	–
O=C1CCCN1CC#CCN1CCCC1 [oxotremorine, 1-[4-(1-pyrrolidinyl-2-butynyl)-2-pyrrolidinone]]	–	–	–	–	–	induces tremors and spasticity in laboratory animals	–	–
CC(C)(C)OC(=O)N1CCC[C@@H]1C#CCN1CCCC1 [Compound 49A, (R)-t-Butyl 2-[3-(1-pyrrolidinyl)-1-propynyl]-1-pyrrolidine-carboxylate]	100	20	430	13	–	–	–	–
CC1CN(CC#CCN2CCCC2)C(=O)N1C(=O)OC(C)(C)C (stereo not drawn) [Compound 17, t-Butyl 5-methyl-2-oxo-3-[4-(1-pyrrolidinyl)-2-butynyl]-1-imidazolidinecarboxylate]	> 100	810	2700	> 25	–	–	–	–
CN(C)CC#C[C@H]1CCCN1 [Compound 50C, (R)-N,N-dimethyl-3-(2-pyrrolidinyl)-2-propyn-1-amine]	> 100	970	> 1000	–	–	–	> 50	–
CCOC(=O)N1CCC[C@@H]1C#CCN1CCCC1 [Compound 51L, (R)-Ethyl 2-[3-(1-pyrrolidinyl)-1-propynyl]-1-pyrrolidinecarboxylate]	> 100	50	760	> 50	–	–	–	–
CN(C)C(=O)N1CCC[C@@H]1C#CCN1CCCC1 [Compound 51E, (R)-N,N-Dimethyl 2-[3-(1-pyrrolidinyl)-1-propynyl]-1-pyrrolidinecarboxamide]	25	12	43	> 50	–	–	–	–
CC(C)(C)OC(=O)N1CCN(CC#CCN2CCCC2)C1=O [Compound 8, t-Butyl 2-oxo-3-[4-(1-pyrrolidinyl)-2-butynyl]-1-imidazolidinecarboxylate]	> 100	130	2200	25	–	–	–	–
O=C1CCCN1CCC#CCN1CCCC1 [N-(5-pyrrolidino-3-pentynyl)-pyrrolidin-2-one]	–	–	–	–	–	–	–	increased half life over prior oxotremorine compounds
CC(=O)N1CCC[C@H]1C#CCN(C)C [Compound 51D, (S)-1-Acetyl-2-[3-(dimethylamino)-1-propynyl]pyrrolidine]	> 100	10000	> 10000	> 50	–	–	–	–
CC(C)(C)OC(=O)N1CCC[C@H]1C#CCN1CCCC1 [Compound 49B, (S)-t-Butyl 2-[3-(1-pyrrolidinyl)-1-propynyl]-1-pyrrolidinecarboxylate]	> 100	3500	> 10000	> 50	–	–	–	–
CC1CN(C(=O)OC(C)(C)C)C(=O)N1CC#CCN1CCCC1 (stereo not drawn) [Compound 18, t-Butyl 4-methyl-2-oxo-3-[4-(1-pyrrolidinyl)-2-butynyl]-1-imidazolidinecarboxylate]	> 30	180	820	25	–	–	–	–
NC(=O)N1CCC[C@@H]1C#CCN1CCCC1 [Compound 51H, (R)-2-[3-(1-pyrrolidinyl)-1-propynyl]-1-pyrrolidinecarboxamide]	> 100	440	> 10000	> 50	–	–	–	–
N#CN1CCC[C@@H]1C#CCN1CCCC1 [Compound 51I, (R)-2-[3-(1-pyrrolidinyl)-1-propynyl]-1-pyrrolidinecarbonitrile]	> 30	310	> 10000	25	–	–	–	–
CC1CN(CC#CCN2CCCC2)C(=O)N1 (stereo not drawn) [Compound 15, 4-Methyl-1-[4-(1-pyrrolidinyl)-2-butynyl]-2-imidazolidinone]	> 10	140	1000	> 13	–	–	–	–
CN(C)CC#CCN1CCN(c2ccccc2)C1=O [Compound 21, 1-[4-(Dimethylamino)-2-butynyl]-3-phenyl-2-imidazolidinone]	> 100	840	> 10000	> 50	–	–	–	–
O=C1N(CC#CCN2CCCC2)CCN1c1ccccc1 [Compound 20, 1-Phenyl-3-[4-(1-pyrrolidinyl)-2-butynyl]-2-imidazolidinone]	> 30	69	170	> 25	–	–	–	–
O=C1NCCN1CC#CCN1CCCC1 [Compound 9, 1-[4-(1-Pyrrolidinyl)-2-butynyl]-2-imidazolidinone]	> 3	13	800	2.2	–	–	–	–
C#CCN1CCN(CC#CCN2CCCC2)C1=O [Compound 14, 1-(2-Propynyl)-3-[4-(1-pyrrolidinyl)-2-butynyl]-2-imidazolidinone]	> 30	200	2300	> 25	–	–	–	–
CC1(C)CNC(=O)N1CC#CCN1CCCC1 [Compound 16, 5,5-Dimethyl-1-[4-(1-pyrrolidinyl)-2-butynyl]-2-imidazolidinone]	> 100	290	1000	25	–	–	–	–
CC(=O)N1CCC[C@@H]1C#CCN(C)C [Compound 51C, (R)-1-Acetyl-2-[3-(dimethylamino)-1-propynyl]pyrrolidine]	> 100	130	> 10000	> 50	–	–	–	–

Reference: US5137905A, “Heterocyclic acetylenic amines having central nervous system activity” (The Upjohn Company, priority 1991, dated 1992)
